This is an account of results in patent US6596723B1, “Fungal efflux pump inhibitors” (Essential Therapeutics, Inc., priority 2001, dated 2003).

The structures appear in SMILES notation. Where two headings read alike, the source gives them in different places.

For assay [1], the system named is clinical isolates of C. tropicalis. Put plainly: potentiation of fluconazole vs. clinical isolates of C. tropicalis. The class given is cell-based. Particulars: for MIC50 / MIC90: Candida tropicalis.
Assay [2] relates to clinical isolates of C. krusei. Put plainly: potentiation of fluconazole vs. clinical isolates of C. krusei. The class given is cell-based. The following applies: Pichia kudriavzevii.
The subject of assay [3] is clinical isolates of C. parapsilosis. Put plainly: potentiation of fluconazole vs. clinical isolates of C. parapsilosis. The following applies: Lodderomyces parapsilosis. In kind it is cell-based.
A further assay concerns A. fumigatus. Put plainly: potentiation of Posaconazole vs. A. fumigatus. In kind it is cell-based, Aspergillus fumigatus. The following applies: 15 strains.
Setting [4] is: fluconazole MIC with FEPI at 16-32 μg/ml, C. tropicalis clinical isolates, read-out: MIC90 Flu + FEPI.
The mark [5] stands for this setting: fluconazole MIC with FEPI at 16-32 μg/ml, C. krusei clinical isolates, read-out: MIC50 Flu + FEPI.
[6] abbreviates: fluconazole MIC with FEPI at 16-32 μg/ml, C. krusei clinical isolates, read-out: MIC90 Flu + FEPI.
Where [7] appears, read: fluconazole MIC with FEPI at 16-32 μg/ml, read-out: MIC50 Flu + FEPI.
Setting [8] is: fluconazole MIC with FEPI at 16-32 μg/ml, read-out: MIC90 Flu + FEPI.

What is called MIC50 is an inhibitory concentration at the 50% level, which refers to growth in some studies and to a panel of isolates in others. One may read the MIC90 as an inhibitory concentration at the 90% level, which refers to growth in some studies and to a panel of isolates in others. For `COc1ccc(N(C(=O)Nc2cccc(Cl)c2)C(C)c2nc3ccccc3c(=O)n2N2CCN(CCO)CC2)c(OC)c1` (stereo not drawn) [Compound 3, 3-(3-Chloro-phenyl)-1-(2,4-dimethoxy-phenyl)-1-(1-{3-[4-(2-hydroxy-ethyl)-piperazin-1-yl]-4-oxo-3,4-dihydro-quinazolin-2-yl}-ethyl)-urea], the MIC50 was 0.25 µg/mL in assay [1] (fluconazole MIC with FEPI at 16-32 μg/ml, C. tropicalis clinical isolates, read-out: MIC50 Flu + FEPI); > 32 µg/mL in assay [2] (setting [5]); < 0.03 µg/mL in assay [3] (setting [7]). Moreover, the MIC90 in assay [1] (setting [4]) is 8 µg/mL; in assay [2] (setting [6]) it was > 32 µg/mL; in assay [3] (setting [8]), 0.5 µg/mL.

On to `OC(Cn1cncn1)(Cn1cncn1)c1ccc(F)cc1F` [fluconazole, reference compound], for which the MIC50 in assay [1] (read-out: MIC50 Flu only) was > 128 µg/mL; in assay [2] (fluconazole alone, C. krusei clinical isolates, read-out: MIC50 Flu only), 64 µg/mL; in assay [3] (fluconazole alone, read-out: MIC50 Flu only) it was 1 µg/mL. For the same compound, the MIC90 in assay [1] (read-out: MIC90 Flu only) is > 128 µg/mL; in assay [2] (read-out: MIC90 Flu only), > 128 µg/mL; in assay [3] (fluconazole alone, read-out: MIC90 Flu only), 4 µg/mL. Further, in assay [1] (listed as Flu), the “MIC50 Flu only” value came out at 128 µg/mL.

A word on the MIC: it is the least concentration at which growth counts as inhibited. On to `COc1ccc(N(C(=O)Nc2cccc(Cl)c2)C(C)c2nc3ccccc3c(=O)n2N2CCN(C)CC2)c(OC)c1` (stereo not drawn) [Compound 1, 3-(3-Chloro-phenyl)-1-(2,4-dimethoxy-phenyl)-1-{1-[3-(4-methyl-piperazin-1-yl)-4-oxo-3,4-dihydro-quinazolin-2-yl]-ethyl}-urea], for which the MIC50 in assay [1] (fluconazole MIC with FEPI at 16-32 μg/ml, […], read-out: MIC50 Flu + FEPI) was 0.125 µg/mL; in assay [2] (setting [5]), 32 µg/mL; in assay [3] (setting [7]), < 0.03 µg/mL. In addition, the values for the MIC90 in assay [1] (setting [4]), in assay [2] (setting [6]) and in assay [3] (setting [8]) were 2 µg/mL, > 32 µg/mL and 0.25 µg/mL, respectively. In the assay on A. fumigatus (concentration of efflux pump inhibitor to reduce MIC of Posaconazole 8-fold), the MPC8 was in the range of 8 to 32 µg/mL. The MIC in the assay with A. fumigatus (Aspergillus fumigatus, footnote: minimum inhibitor concentration of Posaconazole alone to achieve 80% inhibition) is > 32 µg/mL.
